Active and inactive are the calls of the source. For most assays here, no stated cut-off is given here; in the data, actives have a measured IC50 and inactives only a lower limit.
Tests used:
[1] = target: T1, Dual specificity protein phosphatase 6 (Rattus norvegicus, UniProt Q64346); format: functional;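 further: confirmatory in vitro dose-response testing of MKP-3 inhibition; recombinant His-tagged MKP-3 made in E. coli BL21 with OMFP substrate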
T1 sequence (Q64346 whole entry): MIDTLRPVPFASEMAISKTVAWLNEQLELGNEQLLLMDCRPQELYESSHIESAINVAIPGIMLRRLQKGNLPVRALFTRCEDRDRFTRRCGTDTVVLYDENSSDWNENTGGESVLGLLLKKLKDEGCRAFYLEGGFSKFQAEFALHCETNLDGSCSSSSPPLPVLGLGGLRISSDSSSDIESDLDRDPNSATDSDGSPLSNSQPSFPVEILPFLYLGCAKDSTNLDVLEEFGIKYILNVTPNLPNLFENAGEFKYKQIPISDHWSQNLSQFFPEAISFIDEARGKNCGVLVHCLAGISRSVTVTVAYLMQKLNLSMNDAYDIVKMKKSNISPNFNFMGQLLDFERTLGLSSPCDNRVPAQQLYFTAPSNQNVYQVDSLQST

[2] = target: T2, Tyrosine-protein phosphatase non-receptor type 7 (Homo sapiens, UniProt P35236); assay: redox-dependent HePTP inhibition, mechanism study, biochemical, fluorescence (AID 2068); format: functional
T2 sequence (P35236 whole entry): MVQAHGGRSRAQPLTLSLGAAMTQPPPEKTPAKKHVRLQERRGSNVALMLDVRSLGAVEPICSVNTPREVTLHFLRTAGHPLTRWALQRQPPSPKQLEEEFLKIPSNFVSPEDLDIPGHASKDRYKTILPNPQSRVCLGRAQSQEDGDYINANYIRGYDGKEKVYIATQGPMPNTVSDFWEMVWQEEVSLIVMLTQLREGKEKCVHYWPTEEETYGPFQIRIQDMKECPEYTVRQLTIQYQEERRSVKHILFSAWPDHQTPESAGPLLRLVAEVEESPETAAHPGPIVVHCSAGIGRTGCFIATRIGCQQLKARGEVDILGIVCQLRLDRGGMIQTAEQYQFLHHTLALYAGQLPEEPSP

[3] = target: T3, Dual specificity protein phosphatase 3 (Homo sapiens, UniProt P51452); assay: SAR VHR1 Fluorescent Assay for In Vitro dose response studies. [Related pubchem assays (depositor defined):AID1654, AID1661, AID1878, AID1992, AID2004, AID2070, AID2085]; format: functional
T3 sequence (P51452 whole entry): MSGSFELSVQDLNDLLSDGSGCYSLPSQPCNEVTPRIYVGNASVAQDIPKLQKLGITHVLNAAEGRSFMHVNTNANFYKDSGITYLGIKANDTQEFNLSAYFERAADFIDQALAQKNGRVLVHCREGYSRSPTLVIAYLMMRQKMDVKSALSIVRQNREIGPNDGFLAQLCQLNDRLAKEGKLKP

[4] = target: T3, Dual specificity protein phosphatase 3; assay: SAR VHR1 absorbance Assay for In Vitro dose response studies. [Related pubchem assays (depositor defined):AID1654, AID1661, AID1878, AID1992, AID2004]
[5] = target: G-protein coupled receptor 55 (Homo sapiens, UniProt Q9Y2T6); assay: SAR Analysis of Selective Antagonists of GPR55 using an Image-Based Assay - Set 3. [Related pubchem assays (depositor defined):AID2058, AID2079]; format: functional
Chain of G-protein coupled receptor 55 (Q9Y2T6 whole entry): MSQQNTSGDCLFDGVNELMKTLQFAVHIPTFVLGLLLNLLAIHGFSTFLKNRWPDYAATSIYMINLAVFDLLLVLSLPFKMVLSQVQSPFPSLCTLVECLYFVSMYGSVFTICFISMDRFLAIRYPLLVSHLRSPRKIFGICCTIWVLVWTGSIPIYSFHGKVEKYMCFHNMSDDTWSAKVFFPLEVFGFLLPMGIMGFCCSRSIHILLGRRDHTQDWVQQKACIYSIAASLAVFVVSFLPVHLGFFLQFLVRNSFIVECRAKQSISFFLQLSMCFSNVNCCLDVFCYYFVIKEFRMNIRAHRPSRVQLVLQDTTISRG

[6] = target: G-protein coupled receptor 35 (Homo sapiens, UniProt Q9HC97); assay: SAR analysis of Antagonists of the GPR35 Receptor using an Image-Based Assay - Set 5. [Related pubchem assays (depositor defined):AID2058, AID2079]; format: functional
Chain of G-protein coupled receptor 35 (Q9HC97 whole entry): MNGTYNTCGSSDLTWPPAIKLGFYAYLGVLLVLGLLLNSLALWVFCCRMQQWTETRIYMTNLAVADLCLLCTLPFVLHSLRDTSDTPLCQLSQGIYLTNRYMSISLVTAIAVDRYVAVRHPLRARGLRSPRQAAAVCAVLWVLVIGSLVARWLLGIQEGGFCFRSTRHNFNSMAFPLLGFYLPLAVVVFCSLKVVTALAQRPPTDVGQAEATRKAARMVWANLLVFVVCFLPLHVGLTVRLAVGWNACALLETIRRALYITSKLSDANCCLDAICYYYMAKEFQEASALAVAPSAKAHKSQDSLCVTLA

[7] = target: DNA dC->dU-editing enzyme APOBEC-3A (Homo sapiens, UniProt P31941); assay: APOBEC3A DNA deaminase inhibitors, dose response, biochemical (AID 504722); format: functional
Chain of DNA dC->dU-editing enzyme APOBEC-3A (P31941 whole entry): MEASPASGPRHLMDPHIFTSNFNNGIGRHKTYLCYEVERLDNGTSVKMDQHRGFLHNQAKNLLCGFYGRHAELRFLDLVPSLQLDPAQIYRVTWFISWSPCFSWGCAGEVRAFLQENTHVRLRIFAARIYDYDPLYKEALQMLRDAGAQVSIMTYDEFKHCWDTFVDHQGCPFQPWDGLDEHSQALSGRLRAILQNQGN

[8] = target: Troponin, cardiac muscle (Homo sapiens, UniProt P19429+P45379+P63316); assay: Fluorescence-based biochemical high throughput dose response assay for activators of the calcium sensitivity of cardiac Regulated Thin Filaments (RTF). [Related pubchem assays (depositor defined):AID493008, AID493018, AID504382, AID504383]; format: protein-complex assay
[9] = target: DNA dC->dU-editing enzyme APOBEC-3G (Homo sapiens, UniProt Q9HC16); assay: Dose Response confirmation of small molecule APOBEC3G DNA Deaminase Inhibitors via a fluorescence-based single-stranded DNA deaminase assay. [Related pubchem assays (depositor defined):AID493012, AID493028]; format: functional
Chain of DNA dC->dU-editing enzyme APOBEC-3G (Q9HC16 whole entry): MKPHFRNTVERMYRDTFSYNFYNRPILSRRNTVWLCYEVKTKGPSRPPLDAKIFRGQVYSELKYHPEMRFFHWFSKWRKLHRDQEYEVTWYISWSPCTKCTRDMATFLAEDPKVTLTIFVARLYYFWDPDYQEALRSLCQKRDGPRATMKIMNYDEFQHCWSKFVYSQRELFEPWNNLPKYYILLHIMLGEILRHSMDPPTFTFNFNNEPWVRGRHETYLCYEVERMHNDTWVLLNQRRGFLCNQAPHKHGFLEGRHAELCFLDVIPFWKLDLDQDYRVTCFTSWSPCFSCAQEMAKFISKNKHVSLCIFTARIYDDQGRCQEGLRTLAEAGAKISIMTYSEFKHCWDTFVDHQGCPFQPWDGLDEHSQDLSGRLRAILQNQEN

[10] = target: Large T antigen (Simian virus 40, UniProt P03070); format: functional, Betapolyomavirus macacae;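 further: Confirmatory-stage PubChem screen for compounds that inhibit SV40 T antigen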
Chain of Large T antigen (P03070 whole entry): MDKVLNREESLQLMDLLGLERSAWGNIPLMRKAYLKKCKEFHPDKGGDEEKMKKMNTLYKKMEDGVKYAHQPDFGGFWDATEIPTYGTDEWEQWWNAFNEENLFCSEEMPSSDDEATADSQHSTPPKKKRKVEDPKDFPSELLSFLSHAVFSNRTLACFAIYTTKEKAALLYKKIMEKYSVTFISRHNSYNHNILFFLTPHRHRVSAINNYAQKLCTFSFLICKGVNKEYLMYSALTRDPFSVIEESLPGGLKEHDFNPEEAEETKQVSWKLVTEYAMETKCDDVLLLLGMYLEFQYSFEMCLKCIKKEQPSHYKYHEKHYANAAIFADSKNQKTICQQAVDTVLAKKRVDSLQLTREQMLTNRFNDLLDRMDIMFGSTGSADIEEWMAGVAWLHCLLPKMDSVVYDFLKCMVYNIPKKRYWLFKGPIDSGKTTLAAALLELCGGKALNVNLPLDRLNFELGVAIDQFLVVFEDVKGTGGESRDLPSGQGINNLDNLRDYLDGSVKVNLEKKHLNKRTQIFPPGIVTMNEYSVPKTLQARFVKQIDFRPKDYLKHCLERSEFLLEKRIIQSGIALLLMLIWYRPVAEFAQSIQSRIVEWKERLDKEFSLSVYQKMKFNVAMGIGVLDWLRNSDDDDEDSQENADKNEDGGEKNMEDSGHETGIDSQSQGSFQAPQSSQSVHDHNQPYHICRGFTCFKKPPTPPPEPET

S=C(c1cn(CCOc2ccccc2)c2ccccc12)N1CCOCC1
IC50 [1]: > 99 µM (inactive)
IC50 [2]: 2.35 µM (active)
IC50 [3]: > 99 µM (inactive)
IC50 [4]: > 100 µM (inactive)

COc1ccc(-c2n[nH]cc2/C=N/NC(=S)NC(C)(C)C)cc1
IC50 [5]: 16.4 µM (inactive)
IC50 [6]: > 32 µM (inactive)

Cc1cccc(/C=N/n2c(S)nnc2-c2ccncc2)c1
IC50 [7]: > 100 µM (inactive)
EC50 [8]: > 71.5 µM (inactive)
IC50 [9]: 2.62 µM (active)
IC50 [10]: 43.7 µM (active)
